Experimental data published in patent US20200268768A1, “CENICRIVIROC COMBINATION THERAPY FOR THE TREATMENT OF FIBROSIS” (Tobira Therapeutics, Inc., priority 2015, published 2020).
Several values for one entry are separate records, joined by “and”; a condition that tells them apart may be missing. Identical values can stand only once.

Legend:
[1] = system: STAM mouse model of Non-alcoholic Steatohepatitis; experiment: STAM mouse model of NASH, anti-NASH/fibrosis effects at week 9; type: in vivo, mice; set-up: key to Hepatocyte ballooning score 0, number of mice / Hepatocyte ballooning score 1, number of mice: 0: None; 1: Few balloon cells; 2: Many cells/prominent ballooning; TNF-a mRNA expression level / MCP-1 mRNA expression level / Collagen Type 1 mRNA expression level / TIMP-1 mRNA expression level: scale not given here; details: for Collagen Type 1 mRNA expression level / MCP-1 mRNA expression level / TIMP-1 mRNA expression level / TNF-a mRNA expression level: liver, quantitative RT-PCR; for Collagen Type 1 mRNA expression level / MCP-1 mRNA expression level / TIMP-1 mRNA expression level / TNF-a mRNA expression level / Body weight / F4/80-positive area (inflammation area) / F4/80 and CD206-positive cells / F4/80 and CDE 16/32-positive cells / Liver hydroxyproline / Liver triglyceride / Liver weight / Liver-to-body weight ratio / M1/M2 ratio / NAFLD Activity Score (NAS) / Oil red-positive area (fat deposition area) / Plasma ALT / Plasma MCP-1 / TUNEL-positive cells / Whole blood glucose / Sirius red-positive area (fibrosis area) / Modified Sirius red-positive rea: mean ± SD; for Sirius red-positive area (fibrosis area): perivascular space included; for Modified Sirius red-positive rea: perivascular space subtracted
Protocol: NASH was induced in male mice by a single injection of 200 μg streptozotocin 2 days after birth (causing impaired glucose control), followed by a high fat diet from 4 weeks of age. […] Animals were sacrificed at 9 weeks of age, and biochemical, gene expression, and histologic evaluations of the liver were conducted. This in vivo efficacy study was performed to examine the effects of Cenicriviroc in the STAM™ mouse model of Non-alcoholic Steatohepatitis. […] [table]

[2] = system: adults with CCR5 tropic HIV-1; experiment: Study 202 post-hoc APRI and FIB-4 fibrosis index scores; type: in vivo, human
Protocol: APRI and FIB-4 scores were calculated. Change in score category from baseline (BL) to Weeks 24 and 48 was assessed in patients with non-missing data. Correlations between changes from BL in APRI and FIB-4 scores, and MCP-1 (CCR2 ligand) and sCD14 (inflammatory biomarker) levels were evaluated.

[3] = CVC plasma exposures in clinical studies; type: in vivo, human; details: same dosing conditions; Studies 652-1-111, 652-1-110, 652-2-202
[4] = CVC-high 100 mg/kg/day oral, listed as Cenicriviroc
[5] = CVC-low 20 mg/kg/day oral, listed as Cenicriviroc
[6] = Week 24, CVC pooled 100 and 200 mg, or EFV
[7] = Week 48, CVC pooled 100 and 200 mg, or EFV

CCCCOCCOc1ccc(-c2ccc3c(c2)C=C(C(=O)Nc2ccc([S@@+]([O-])Cc4cncn4CCC)cc2)CCCN3CC(C)C)cc1 [CVC, (S)-8-[4-(2-Butoxyethoxy)phenyl]-1-isobutyl-N-(4-{[(1-propyl-1H-imidazol-5-yl)methyl]sulfinyl}phenyl)-1,2,3,4-tetrahydro-1-benzazocine-5-carboxamide]
Decrease of collagen type 1 mRNA in whole liver lysates ([1]; CVC 20 and 100 mg/kg/day, real-time RT-PCR): 27-37%
Collagen Type 1 mRNA expression level ([1]; CVC-high 100 mg/kg/day oral): 0.73±0.04
MCP-1 mRNA expression level ([1]; CVC-high 100 mg/kg/day oral): 1.00±0.53
TIMP-1 mRNA expression level ([1]; CVC-high 100 mg/kg/day oral): 0.80±0.20
TNF-a mRNA expression level ([1]; CVC-high 100 mg/kg/day oral): 1.09±0.23
Collagen Type 1 mRNA expression level [1, 4]: 0.73 ± 0.04
MCP-1 mRNA expression level [1, 4]: 1.00 ± 0.53
TIMP-1 mRNA expression level [1, 4]: 0.80 ± 0.20
TNF-a mRNA expression level [1, 4]: 1.09 ± 0.23
Body weight ([1]; CVC-high 100 mg/kg/day oral): 18.7 ± 0.9 g
F4/80-positive area (inflammation area) ([1]; CVC-high 100 mg/kg/day oral): 4.96±0.60%
F4/80 and CD206-positive cells ([1]; CVC-high 100 mg/kg/day oral): 33.1±3.0%
F4/80 and CDE 16/32-positive cells ([1]; CVC-high 100 mg/kg/day oral): 41.5±8.2%
Liver hydroxyproline ([1]; CVC-high 100 mg/kg/day oral): 0.62±0.09 ug/mg total protein
Liver triglyceride ([1]; CVC-high 100 mg/kg/day oral): 51.7±14.1 mg/g liver
Liver weight ([1]; CVC-high 100 mg/kg/day oral): 1307 ± 119 mg
Liver-to-body weight ratio ([1]; CVC-high 100 mg/kg/day oral): 7.0±0.8%
M1/M2 ratio ([1]; CVC-high 100 mg/kg/day oral): 125.1±21.9%
NAFLD Activity Score (NAS) ([1]; CVC-high 100 mg/kg/day oral): 3.7±0.8
Oil red-positive area (fat deposition area) ([1]; CVC-high 100 mg/kg/day oral): 7.23±3.59%
Plasma ALT ([1]; CVC-high 100 mg/kg/day oral): 51±13 U/L and 52±13 U/L
Plasma MCP-1 ([1]; CVC-high 100 mg/kg/day oral): 91 ± 14 pg/mL
TUNEL-positive cells ([1]; CVC-high 100 mg/kg/day oral): 39.0±5.3%
Whole blood glucose ([1]; CVC-high 100 mg/kg/day oral): 585 ± 91 mg/dL
Body weight [1, 4]: 18.7 ± 0.9 g
F4/80-positive area (inflammation area) [1, 4]: 4.96 ± 0.60%
F4/80 and CD206-positive cells [1, 4]: 33.1 ± 3.0%
F4/80 and CDE 16/32-positive cells [1, 4]: 41.5 ± 8.2%
Liver hydroxyproline [1, 4]: 0.62 ± 0.09 ug/mg total protein
Liver triglyceride [1, 4]: 51.7 ± 14.1 mg/g liver
Liver weight [1, 4]: 1307 ± 119 mg
Liver-to-body weight ratio [1, 4]: 7.0 ± 0.8%
M1/M2 ratio [1, 4]: 125.1 ± 21.9%
NAFLD Activity Score (NAS) [1, 4]: 3.7 ± 0.8
Oil red-positive area (fat deposition area) [1, 4]: 7.23 ± 3.59%
Plasma ALT [1, 4]: 52 ± 13 U/L
Plasma MCP-1 [1, 4]: 91 ± 14 pg/mL
TUNEL-positive cells [1, 4]: 39.0 ± 5.3%
Whole blood glucose [1, 4]: 585 ± 91 mg/dL
Sirius red-positive area (fibrosis area) [1, 4]: 0.64 ± 0.19%
Modified Sirius red-positive rea [1, 4]: 0.20 ± 0.06%
Modified positive area, per mouse ([1]; CVC-high 100 mg/kg/day, Sirius red, individual mice 301-306, listed as Cenicriviroc): 0.18% and 0.20% and 0.12% and 0.26% and 0.17% and 0.27%
Modified positive area, per photo ([1]; CVC-high 100 mg/kg/day, Sirius red, individual mice 301-306, photos 1-5, listed as Cenicriviroc): 0.26% and 0.06% and 0.10% and 0.41% and 0.09% (2×) and 0.23% (2×) and 0.17% (2×) and 0.28% (2×) and 0.22% (2×) and 0.08% (3×) and 0.05% and 0.32% and 0.07% (3×) and 0.16% and 0.20% (2×) and 0.68% and 0.27% and 0.12% and 0.11% and 0.67%
Hepatocyte ballooning score 0, number of mice ([1]; CVC-high 100 mg/kg/day, n=6): 1
Hepatocyte ballooning score 1, number of mice ([1]; CVC-high 100 mg/kg/day, n=6): 2
Hepatocyte ballooning score 2, number of mice ([1]; CVC-high 100 mg/kg/day, n=6): 3
Lobular inflammation score 1, number of mice ([1]; CVC-high 100 mg/kg/day, n=6): 3 (>4 foci/200x)
Lobular inflammation score 2, number of mice ([1]; CVC-high 100 mg/kg/day, n=6): 3 (>4 foci/200x)
Steatosis score 0, number of mice ([1]; CVC-high 100 mg/kg/day, n=6): 1 (5-33%)
Steatosis score 1, number of mice ([1]; CVC-high 100 mg/kg/day, n=6): 5
Collagen Type 1 mRNA expression level ([1]; CVC-low 20 mg/kg/day oral): 0.63±0.10
MCP-1 mRNA expression level ([1]; CVC-low 20 mg/kg/day oral): 1.05±0.50
TIMP-1 mRNA expression level ([1]; CVC-low 20 mg/kg/day oral): 0.75±0.32
TNF-a mRNA expression level ([1]; CVC-low 20 mg/kg/day oral): 1.16±0.39
Collagen Type 1 mRNA expression level [1, 5]: 0.63 ± 0.10
MCP-1 mRNA expression level [1, 5]: 1.05 ± 0.50
TIMP-1 mRNA expression level [1, 5]: 0.75 ± 0.32
TNF-a mRNA expression level [1, 5]: 1.16 ± 0.39
Body weight ([1]; CVC-low 20 mg/kg/day oral): 19.5 ± 2.0 g
F4/80-positive area (inflammation area) ([1]; CVC-low 20 mg/kg/day oral): 4.77±1.02%
F4/80 and CD206-positive cells ([1]; CVC-low 20 mg/kg/day oral): 34.7±6.3%
F4/80 and CDE 16/32-positive cells ([1]; CVC-low 20 mg/kg/day oral): 38.7±7.6%
Liver hydroxyproline ([1]; CVC-low 20 mg/kg/day oral): 0.63±0.05 ug/mg total protein
Liver triglyceride ([1]; CVC-low 20 mg/kg/day oral): 48.5±16.1 mg/g liver
Liver weight ([1]; CVC-low 20 mg/kg/day oral): 1334 ± 99 mg
Liver-to-body weight ratio ([1]; CVC-low 20 mg/kg/day oral): 6.9±1.0%
M1/M2 ratio ([1]; CVC-low 20 mg/kg/day oral): 112.3±17.0%
NAFLD Activity Score (NAS) ([1]; CVC-low 20 mg/kg/day oral): 4.0±0.6
Oil red-positive area (fat deposition area) ([1]; CVC-low 20 mg/kg/day oral): 6.51±3.88%
Plasma ALT ([1]; CVC-low 20 mg/kg/day oral): 58±12 U/L
Plasma MCP-1 ([1]; CVC-low 20 mg/kg/day oral): 68 ± 16 pg/mL
TUNEL-positive cells ([1]; CVC-low 20 mg/kg/day oral): 43.3±2.9%
Whole blood glucose ([1]; CVC-low 20 mg/kg/day oral): 585 ± 91 mg/dL
Body weight [1, 5]: 19.5 ± 2.0 g
F4/80-positive area (inflammation area) [1, 5]: 4.77 ± 1.02%
F4/80 and CD206-positive cells [1, 5]: 34.7 ± 6.3%
F4/80 and CDE 16/32-positive cells [1, 5]: 38.7 ± 7.6%
Liver hydroxyproline [1, 5]: 0.63 ± 0.05 ug/mg total protein
Liver triglyceride [1, 5]: 48.5 ± 16.1 mg/g liver
Liver weight [1, 5]: 1334 ± 99 mg
Liver-to-body weight ratio [1, 5]: 6.9 ± 1.0%
M1/M2 ratio [1, 5]: 112.3 ± 17.0%
NAFLD Activity Score (NAS) [1, 5]: 4.0 ± 0.6
Oil red-positive area (fat deposition area) [1, 5]: 6.51 ± 3.88%
Plasma ALT [1, 5]: 58 ± 12 U/L
Plasma MCP-1 [1, 5]: 68 ± 16 pg/mL
TUNEL-positive cells [1, 5]: 43.3 ± 2.9%
Whole blood glucose [1, 5]: 585 ± 91 mg/dL
Sirius red-positive area (fibrosis area) [1, 5]: 0.66 ± 0.16%
Modified Sirius red-positive rea [1, 5]: 0.29 ± 0.14%
Hepatocyte ballooning score 1, number of mice ([1]; CVC-low 20 mg/kg/day, n=6): 3
Hepatocyte ballooning score 2, number of mice ([1]; CVC-low 20 mg/kg/day, n=6): 3
Lobular inflammation score 1, number of mice ([1]; CVC-low 20 mg/kg/day, n=6): 3 (>4 foci/200x)
Lobular inflammation score 2, number of mice ([1]; CVC-low 20 mg/kg/day, n=6): 3 (>4 foci/200x)
Steatosis score 1, number of mice ([1]; CVC-low 20 mg/kg/day, n=6): 6
Increase in plasma monocyte chemotactic protein-1 levels ([1]; high dose 100 mg/kg/day): 1.5 fold
Increase in plasma monocyte chemotactic protein-1 levels ([1]; low dose 20 mg/kg/day): 1.1 fold
Subjects in APRI category 0.5-1.5 [2, 6]: 7%
Subjects in APRI category <0.5 [2, 6]: 93%
Subjects in FIB-4 category 1.45-3.25 [2, 6]: 7%
Subjects in FIB-4 category <1.45 [2, 6]: 93%
Subjects with APRI decreased 1 category from baseline [2, 6]: 14%
Subjects with FIB-4 decreased 1 category from baseline [2, 6]: 13%
Subjects in APRI category 0.5-1.5 [2, 7]: 8%
Subjects in APRI category <0.5 [2, 7]: 91%
Subjects in APRI category >1.5 [2, 7]: 1%
Subjects in FIB-4 category 1.45-3.25 [2, 7]: 5%
Subjects in FIB-4 category <1.45 [2, 7]: 94%
Subjects in FIB-4 category >3.25 [2, 7]: 1%
Subjects with APRI decreased 1 category from baseline [2, 7]: 10%
Subjects with FIB-4 decreased 1 category from baseline [2, 7]: 14%
Subjects with improvements in APRI and FIB-4 scores over time ([2]; all CVC-treated subjects, pooled CVC 100 mg and 200 mg): ≥ 10%
CVC plasma exposures [3]: higher in non-HIV infected healthy volunteer subjects as compared to HIV-infected subjects
